Assay results from patent publication US11517516B2, “Use of ester derivative of tryptophan as deodorant and/or perfume agent” (L'oreal, priority 2014, dated 2022).

Tests used:
[1] = ex-vivo olfactory evaluation test on incubated sweat; details: for effect on the unpleasant odor: compared to the negative control (incubated sweat alone), concentrations as tested; for comparison of anti-odor activity, compound 1 versus ethyl N-acetyl-L-tryptophanate: equivalent dose, several concentrations (0.1%, 0.5%, 1%)
Protocol: The deodorant activity was evaluated in the ex-vivo olfactory evaluation test, on incubated sweat.
Tryptophan ethyl ester hydrochloride (compound 1 of the example A-1) was evaluated at various concentrations in a pool of fresh sweat.
The samples were prepared in 10-ml headspace screw bottles, they are incubated at 35° C. for 24 h under stirring. A sample of sweat with 1 mg of anhydrous aluminum hydroxychloride (ACH) in 1 ml of sweat (i.e. 0.1%) is incubated in order to serve as a positive reference (little odor) and a sample of sweat alone is incubated to serve as a negative reference (unpleasant odor).
The samples after incubation are evaluated olfactively by a panel of several people in a blind test on the headspace bottles. The incubated samples of sweat containing ACH and sweat alone are evaluated at the same time in order to be used respectively as […].
3 parameters are evaluated on a scale from 0 to 10: • The residual of the unpleasant odor with 0 for not very unpleasant (positive reference) and 10 for very unpleasant odor (negative reference). • The total power of the odor with 0 for little power and 10 for very powerful. • The pleasantness of the odor with 0 for not very pleasant and 10 for very pleasant.

[2] = system: Corynebacterium xerosis CIP 5216; experiment: killing test: number of viable micro-organisms after contact; type: cell-based; details: 0.5%; for viable micro-organisms, CFU/g of preparation: 35° C., inoculum 1.4E7
Description: The anti-microbial activity of Tryptophan ethyl ester hydrochloride (compound 1) was valuated in vitro on Corynebacterium xerosis (killing test, quantity of micro-organisms killed). Purpose of test: Quantitative determination of the activity of a cosmetic starting material with respect to Corynebacterium xerosis, a micro-organism involved in the phenomena linked to underarm odor. This micro-organism is placed in optimum growth conditions. Protocol: The model strain used is: Corynebacterium xerosis CIP 5216 (bacteria) The strain is placed into contact with the starting material to be tested in a suitable liquid culture medium. The dilutions of the compounds under evaluation are performed in agar at 1:1000, making it possible, for dispersible compounds under evaluation, to do away with the use of a solvent which could introduce bias in the evaluation of the compounds. In parallel, a growth control, in which the starting material to be tested is replaced with diluent, is prepared in the same conditions. The samples are placed in a rotating incubator at 35° C. and maintained under stirring for the entire duration of the test. After 2, 6 and 24 hours of contact, the number of viable micro-organisms remaining in the mixture is evaluated. The results are expressed as a logarithm of the number of micro-organisms per milliliter of mixture.

[3] = Table 5, 0.5% in incubated sweat, scale 0 to 10
[4] = incubated sweat, release of odorous volatile molecules
[5] = Table 1, 0.1% in sweat, 35° C. 24 h, scale 0 to 10, panel of 6
[6] = Table 2, 0.1% in sweat, scale 0 to 10, panel of 6
[7] = Table 3, positive reference, 1 mg in 1 ml of sweat (0.1%), scale 0 to 10
[8] = Table 4, positive reference, 1 mg in 1 ml of sweat (0.1%), scale 0 to 10
[9] = Table 5, positive reference, 1 mg in 1 ml of sweat (0.1%), scale 0 to 10
[10] = Table 2, 0.5% in sweat, scale 0 to 10, panel of 6
[11] = Table 2, 1% in sweat, scale 0 to 10, panel of 6
[12] = Table 4, 0.3% in incubated sweat, scale 0 to 10
[13] = Table 3, 0.5% in incubated sweat, scale 0 to 10, panel of 6
[14] = Table 1, 0.5% in sweat, scale 0 to 10, panel of 6
[15] = Table 1, 1% in sweat, scale 0 to 10, panel of 6

CC(C)(C)OC(=O)[C@@H](N)Cc1c[nH]c2ccccc12.Cl [Compound 8, Tryptophan tertiobutyl ester hydrochloride]
Pleasantness of the odor [1, 3]: 5.7
Power [1, 3]: 4
Residual unpleasant odor [1, 3]: 1.7
effect on the unpleasant odor [1]: effect on the reduction of the unpleasant odor
Pleasantness of the odor [1, 4]: generate a pleasant odor

anhydrous aluminum hydroxychloride [ACH, reference compound]
Power [1, 5]: 1.6
Residual unpleasant odor [1, 5]: 0.5
Power [1, 6]: 1.6
Residual unpleasant odor [1, 6]: 0.5
Pleasantness of the odor [1, 7]: 4
Power [1, 7]: 0.8
Residual unpleasant odor [1, 7]: 0.3
Pleasantness of the odor [1, 8]: 3.7
Power [1, 8]: 2.7
Residual unpleasant odor [1, 8]: 2.7
Pleasantness of the odor [1, 9]: 5
Power [1, 9]: 2
Residual unpleasant odor [1, 9]: 1.7

CCOC(=O)[C@H](Cc1c[nH]c2ccccc12)NC(C)=O [Compound 2, ethyl N-Acetyl-L-tryptophanate, reference compound]
Power [1, 6]: 6.2
Residual unpleasant odor [1, 6]: 6.8
Power [1, 10]: 6.8
Residual unpleasant odor [1, 10]: 7.5
Power [1, 11]: 6.6
Residual unpleasant odor [1, 11]: 7
comparison of anti-odor activity, compound 1 versus ethyl N-acetyl-L-tryptophanate ([1]; incubated sweat): not as effective as Tryptophan ethyl ester hydrochloride

CCCCCCCCOC(=O)[C@@H](N)Cc1c[nH]c2ccccc12.Cl [Compound 6, Tryptophan octyl ester hydrochloride]
Pleasantness of the odor [1, 12]: 7
Power [1, 12]: 7
Residual unpleasant odor [1, 12]: 0.3
Pleasantness of the odor [1, 3]: 7.7
Power [1, 3]: 6.3
Residual unpleasant odor [1, 3]: 0.3
effect on the unpleasant odor [1]: effect of reducing the unpleasant odor
Pleasantness of the odor [1, 4]: generates a pleasant odor

CC/C=C\CCOC(=O)[C@@H](N)Cc1c[nH]c2ccccc12 [Compound 3, Tryptophan cis-3-hexenyl ester]
Pleasantness of the odor [1, 13]: 7.8
Power [1, 13]: 6.8
Residual unpleasant odor [1, 13]: 1
effect on the unpleasant odor [1]: effect of reducing the unpleasant odor
Pleasantness of the odor [1, 4]: contribute to the pleasantness of the odor

N[C@@H](Cc1c[nH]c2ccccc12)C(=O)OCc1ccccc1 [Compound 7, Tryptophan benzyl ester]
Pleasantness of the odor [1, 3]: 3.7
Power [1, 3]: 4.3
Residual unpleasant odor [1, 3]: 3
effect on the unpleasant odor [1]: effect on the reduction of the unpleasant odor
Pleasantness of the odor [1, 4]: generate a pleasant odor

CC/C=C\CCOC(=O)[C@@H](N)Cc1c[nH]c2ccccc12.Cl [Compound 4, Tryptophan cis-3-hexenyl ester hydrochloride]
Pleasantness of the odor [1, 13]: 6
Power [1, 13]: 7
Residual unpleasant odor [1, 13]: 2.5
effect on the unpleasant odor [1]: effect of reducing the unpleasant odor
Pleasantness of the odor [1, 4]: contribute to the pleasantness of the odor

CCOC(=O)[C@@H](N)Cc1c[nH]c2ccccc12.Cl [Compound 1, L-tryptophan ethyl ester chlorhydride]
anti-microbial activity on C. xerosis ([2]; in terms of the growth control): excellent anti-microbial activity
viable micro-organisms, CFU/g of preparation ([2]; 2 hours of contact): 4.6E3 CFU/g of preparation
viable micro-organisms, CFU/g of preparation ([2]; 6 hours of contact): 4.0E1 CFU/g of preparation
viable micro-organisms, CFU/g of preparation ([2]; 24 hours of contact): <20 CFU/g of preparation
reduction in terms of the growth control ([2]; after 2 h of contact): 3.3 Log Units
reduction in terms of the growth control ([2]; after 6 h of contact): 5.4 Log
reduction in terms of the growth control ([2]; after 24 h of contact): greater than or equal to 6.6 Log
Power [1, 5]: 3.2
Residual unpleasant odor [1, 5]: 3.4
Power [1, 14]: 2.8
Residual unpleasant odor [1, 14]: 3.2
Power [1, 15]: 1.4
Residual unpleasant odor [1, 15]: 0.6
Power [1, 6]: 3.2
Residual unpleasant odor [1, 6]: 3.4
Power [1, 10]: 2.8
Residual unpleasant odor [1, 10]: 3.2
Power [1, 11]: 1.4
Residual unpleasant odor [1, 11]: 0.6
Pleasantness of the odor [1, 12]: 5.3
Power [1, 12]: 3
Residual unpleasant odor [1, 12]: 1.7
Pleasantness of the odor [1, 3]: 5.7
Power [1, 3]: 3.3
Residual unpleasant odor [1, 3]: 1.3
effect on the unpleasant odor [1]: clear decrease in the unpleasant odor
comparison of anti-odor activity, compound 1 versus ethyl N-acetyl-L-tryptophanate ([1]; incubated sweat): superiority
comparison of anti-odor activity, compound 1 versus ethyl N-acetyl-L-tryptophanate ([1]; incubated sweat, listed as Tryptophan ester hydrochloride): better anti-odor activity than the Ethyl N-acetyl-L-tryptophanate

C=CC(C)CCCC(C)(C)OC(=O)[C@@H](N)Cc1c[nH]c2ccccc12 (stereo partly drawn) [Compound 5, Tryptophan dihydromyrcenyl ester]
Pleasantness of the odor [1, 13]: 5.8
Power [1, 13]: 5.5
Residual unpleasant odor [1, 13]: 2.5
effect on the unpleasant odor [1]: effect of reducing the unpleasant odor
Pleasantness of the odor [1, 4]: contribute to the pleasantness of the odor
